In ChEMBL document CHEMBL1157550, “Incorporation of fluorinated phenylalanine generates highly specific inhibitor of proteasome's chymotrypsin-like sites” (J Med Chem, 2010):
One block for each compound: values may come before it.

Columns and labels:
[1] = molecular target: Proteasome subunit beta type-5 (Homo sapiens) (UniProt P28074); test: Inhibition of 26S proteasome beta 5 in human HEK293 cell lysate assessed as residual activity at […] after 1 hr
[2] = molecular target: Proteasome Macropain subunit (Homo sapiens) (UniProt P49721); test: Inhibition of 26S proteasome beta 2 in human HEK293 cell lysate assessed as residual activity at 13.5 uM after 1 hr; type: cell-free
Chain of Proteasome Macropain subunit (Homo sapiens) (P49721 whole entry): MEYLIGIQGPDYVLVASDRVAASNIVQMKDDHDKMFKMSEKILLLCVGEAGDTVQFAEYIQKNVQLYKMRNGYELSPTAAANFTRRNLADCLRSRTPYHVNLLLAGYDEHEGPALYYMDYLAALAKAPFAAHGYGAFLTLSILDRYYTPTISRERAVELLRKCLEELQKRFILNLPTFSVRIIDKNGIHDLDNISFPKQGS

[3] = molecular target: Proteasome Macropain subunit (Homo sapiens) (UniProt P49721); test: Inhibition of 26S proteasome beta 2 in human HEK293 cell lysate assessed as residual activity at 0.002 uM after 1 hr; type: cell-free
[4] = molecular target: T1, Proteasome component C5 (Homo sapiens) (UniProt P20618); test: Inhibition of 26S proteasome beta 1 in human HEK293 cell lysate assessed as residual activity at 0.002 uM after 1 hr; type: cell-free
T1 sequence (whole entry): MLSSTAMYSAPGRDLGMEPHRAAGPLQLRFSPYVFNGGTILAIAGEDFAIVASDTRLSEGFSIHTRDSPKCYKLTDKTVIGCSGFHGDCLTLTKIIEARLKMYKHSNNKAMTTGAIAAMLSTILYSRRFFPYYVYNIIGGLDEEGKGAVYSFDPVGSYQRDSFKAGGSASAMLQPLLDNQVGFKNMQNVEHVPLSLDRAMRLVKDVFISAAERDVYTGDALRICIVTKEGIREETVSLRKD

[5] = molecular target: T1, Proteasome component C5 (Homo sapiens); test: Inhibition of 26S proteasome beta 1 in human HEK293 cell lysate assessed as residual activity at 0.167 uM after 1 hr; type: cell-free
[6] = molecular target: Proteasome Macropain subunit (Homo sapiens) (UniProt P49721); test: Inhibition of 26S proteasome beta 2 in human HEK293 cell lysate assessed as residual activity at 0.006 uM after 1 hr; type: cell-free
[7] = molecular target: Proteasome Macropain subunit (Homo sapiens) (UniProt P49721); test: Inhibition of 26S proteasome beta 2 in human HEK293 cell lysate assessed as residual activity at 0.5 uM after 1 hr; type: cell-free
[8] = molecular target: Proteasome subunit beta type-5 (Homo sapiens) (UniProt P28074); test: Inhibition of 26S proteasome beta 5 in human HEK293 cell lysate assessed as residual activity at 0.006 uM after 1 hr
[9] = molecular target: T2, Proteasome Macropain subunit MB1 (Homo sapiens) (UniProt P28074); test: Displacement of fluorescent labeled MV151 from 26S proteasome beta 5 in human HEK293 cell lysate assessed as residual activity at 1 uM after 1 hr by SDS-PAGE; type: cell-free
T2 sequence (whole entry): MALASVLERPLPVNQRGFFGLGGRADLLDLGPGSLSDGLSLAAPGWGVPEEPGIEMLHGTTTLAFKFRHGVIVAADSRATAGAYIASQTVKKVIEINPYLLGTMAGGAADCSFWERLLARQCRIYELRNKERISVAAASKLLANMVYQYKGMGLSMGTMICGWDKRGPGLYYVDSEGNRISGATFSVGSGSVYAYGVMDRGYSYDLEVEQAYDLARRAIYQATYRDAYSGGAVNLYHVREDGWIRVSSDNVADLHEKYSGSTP

[10] = molecular target: T1, Proteasome component C5 (Homo sapiens); test: Inhibition of 26S proteasome beta 1 in human HEK293 cell lysate assessed as residual activity at 0.001 uM after 1 hr; type: cell-free
[11] = molecular target: Proteasome Macropain subunit (Homo sapiens) (UniProt P49721); test: Inhibition of 26S proteasome beta 2 in human HEK293 cell lysate assessed as residual activity at 0.019 uM after 1 hr; type: cell-free
[12] = molecular target: T2, Proteasome Macropain subunit MB1 (Homo sapiens); test: Displacement of fluorescent labeled MV151 from 26S proteasome beta 5 in human HEK293 cell lysate assessed as residual activity at 100 uM after 1 hr by SDS-PAGE; type: cell-free
[13] = molecular target: T1, Proteasome component C5 (Homo sapiens); test: Inhibition of 26S proteasome beta 1 in human HEK293 cell lysate assessed as residual activity at 13.5 uM after 1 hr; type: cell-free
[14] = molecular target: Proteasome Macropain subunit (Homo sapiens) (UniProt P49721); test: (§1) Inhibition of 26S proteasome beta 2 in human HEK293 cell lysate assessed as residual activity at […] after 1 hr; type: cell-free
[15] = molecular target: Proteasome subunit beta type-5 (Homo sapiens) (UniProt P28074); test: Inhibition of 26S proteasome beta 5 in human HEK293 cell lysate assessed as residual activity at 0.5 uM after 1 hr
[16] = molecular target: Proteasome subunit beta type-5 (Homo sapiens) (UniProt P28074); test: Inhibition of 26S proteasome beta 5 in human HEK293 cell lysate assessed as residual activity at 0.019 uM after 1 hr
[17] = molecular target: T1, Proteasome component C5 (Homo sapiens); test: Inhibition of 26S proteasome beta 1 in human HEK293 cell lysate assessed as residual activity at 0.006 uM after 1 hr; type: cell-free
[18] = molecular target: Proteasome subunit beta type-5 (Homo sapiens) (UniProt P28074); test: Inhibition of 26S proteasome beta 5 in human HEK293 cell lysate assessed as residual activity at 13.5 uM after 1 hr
[19] = molecular target: T1, Proteasome component C5 (Homo sapiens); test: Inhibition of 26S proteasome beta 1 in human HEK293 cell lysate assessed as residual activity at 0.019 uM after 1 hr; type: cell-free
[20] = molecular target: T1, Proteasome component C5 (Homo sapiens); test: Displacement of fluorescent labeled MV151 from 26S proteasome beta 1 in human HEK293 cell lysate assessed as residual activity at 1 uM after 1 hr by SDS-PAGE; type: cell-free
[21] = molecular target: Proteasome Macropain subunit (Homo sapiens) (UniProt P49721); test: Inhibition of 26S proteasome beta 2 in human HEK293 cell lysate assessed as residual activity at 0.167 uM after 1 hr; type: cell-free
[22] = molecular target: Proteasome Macropain subunit (Homo sapiens) (UniProt P49721); test: Inhibition of 26S proteasome beta 2 in human HEK293 cell lysate assessed as residual activity at 0.001 uM after 1 hr; type: cell-free
[23] = molecular target: T1, Proteasome component C5 (Homo sapiens); test: (§2) Inhibition of 26S proteasome beta 1 in human HEK293 cell lysate assessed as residual activity at […] after 1 hr; type: cell-free
[24] = molecular target: Proteasome Macropain subunit (Homo sapiens) (UniProt P49721); test: Inhibition of 26S proteasome beta 2 in human HEK293 cell lysate assessed as residual activity at 1.5 uM after 1 hr; type: cell-free
[25] = molecular target: Proteasome Macropain subunit (Homo sapiens) (UniProt P49721); test: Displacement of fluorescent labeled MV151 from 26S proteasome beta 2 in human HEK293 cell lysate assessed as residual activity at 100 uM after 1 hr by SDS-PAGE; type: cell-free
[26] = molecular target: Proteasome Macropain subunit (Homo sapiens) (UniProt P49721); test: as §1; type: cell-free; remark: listed apart in the source
[27] = molecular target: Proteasome subunit beta type-5 (Homo sapiens) (UniProt P28074); test: Inhibition of 26S proteasome beta 5 in human HEK293 cell lysate assessed as residual activity at 0.002 uM after 1 hr
[28] = molecular target: Proteasome subunit beta type-5 (Homo sapiens) (UniProt P28074); test: Inhibition of 26S proteasome beta 5 in human HEK293 cell lysate assessed as residual activity at 0.001 uM after 1 hr
[29] = molecular target: Proteasome subunit beta type-5 (Homo sapiens) (UniProt P28074); test: Inhibition of 26S proteasome beta 5 in human HEK293 cell lysate assessed as residual activity at 0.167 uM after 1 hr
[30] = molecular target: T1, Proteasome component C5 (Homo sapiens); test: Displacement of fluorescent labeled MV151 from 26S proteasome beta 1 in human HEK293 cell lysate assessed as residual activity at 100 uM after 1 hr by SDS-PAGE; type: cell-free
[31] = molecular target: T1, Proteasome component C5 (Homo sapiens); test: Inhibition of 26S proteasome beta 1 in human HEK293 cell lysate assessed as residual activity at 0.5 uM after 1 hr; type: cell-free
[32] = molecular target: T1, Proteasome component C5 (Homo sapiens); test: Inhibition of 26S proteasome beta 1 in human HEK293 cell lysate assessed as residual activity at 1.5 uM after 1 hr; type: cell-free
[33] = molecular target: Proteasome Macropain subunit (Homo sapiens) (UniProt P49721); test: Displacement of fluorescent labeled MV151 from 26S proteasome beta 2 in human HEK293 cell lysate assessed as residual activity at 1 uM after 1 hr by SDS-PAGE; type: cell-free
[34] = molecular target: Proteasome subunit beta type-5 (Homo sapiens) (UniProt P28074); test: Inhibition of 26S proteasome beta 5 in human HEK293 cell lysate assessed as residual activity at […] after 1 hr; remark: listed apart in the source
[35] = molecular target: Proteasome subunit beta type-5 (Homo sapiens) (UniProt P28074); test: Inhibition of 26S proteasome beta 5 in human HEK293 cell lysate assessed as residual activity at 1.5 uM after 1 hr
[36] = molecular target: T1, Proteasome component C5 (Homo sapiens); test: as §2; type: cell-free; remark: listed apart in the source
[37] = molecular target: Proteasome Macropain subunit (Homo sapiens) (UniProt P49721); test: Inhibition of 26S proteasome beta 2 in human HEK293 cell lysate assessed as residual activity at 0.03 uM after 1 hr; type: cell-free
[38] = molecular target: Proteasome Macropain subunit (Homo sapiens) (UniProt P49721); test: Inhibition of 26S proteasome beta 2 in human HEK293 cell lysate assessed as residual activity at 9 uM after 1 hr; type: cell-free
[39] = molecular target: T1, Proteasome component C5 (Homo sapiens); test: Inhibition of 26S proteasome beta 1 in human HEK293 cell lysate assessed as residual activity at 9 uM after 1 hr; type: cell-free
[40] = molecular target: Proteasome subunit beta type-5 (Homo sapiens) (UniProt P28074); test: Inhibition of 26S proteasome beta 5 in human HEK293 cell lysate assessed as residual activity at 0.03 uM after 1 hr
[41] = molecular target: Proteasome subunit beta type-5 (Homo sapiens) (UniProt P28074); test: Inhibition of 26S proteasome beta 5 in human HEK293 cell lysate assessed as residual activity at 1 uM after 1 hr
[42] = molecular target: T1, Proteasome component C5 (Homo sapiens); test: Inhibition of 26S proteasome beta 1 in human HEK293 cell lysate assessed as residual activity at 0.03 uM after 1 hr; type: cell-free
[43] = molecular target: T1, Proteasome component C5 (Homo sapiens); test: Inhibition of 26S proteasome beta 1 in human HEK293 cell lysate assessed as residual activity at 3 uM after 1 hr; type: cell-free
[44] = molecular target: Proteasome Macropain subunit (Homo sapiens) (UniProt P49721); test: Inhibition of 26S proteasome beta 2 in human HEK293 cell lysate assessed as residual activity at 1 uM after 1 hr; type: cell-free
[45] = molecular target: Proteasome Macropain subunit (Homo sapiens) (UniProt P49721); test: Inhibition of 26S proteasome beta 2 in human HEK293 cell lysate assessed as residual activity at 0.11 uM after 1 hr; type: cell-free
[46] = molecular target: T1, Proteasome component C5 (Homo sapiens); test: Inhibition of 26S proteasome beta 1 in human HEK293 cell lysate assessed as residual activity at 0.11 uM after 1 hr; type: cell-free
[47] = molecular target: Proteasome subunit beta type-5 (Homo sapiens) (UniProt P28074); test: Inhibition of 26S proteasome beta 5 in human HEK293 cell lysate assessed as residual activity at 9 uM after 1 hr
[48] = molecular target: Proteasome subunit beta type-5 (Homo sapiens) (UniProt P28074); test: Inhibition of 26S proteasome beta 5 in human HEK293 cell lysate assessed as residual activity at 3 uM after 1 hr
[49] = molecular target: Proteasome subunit beta type-5 (Homo sapiens) (UniProt P28074); test: Inhibition of 26S proteasome beta 5 in human HEK293 cell lysate assessed as residual activity at 0.11 uM after 1 hr
[50] = molecular target: Proteasome Macropain subunit (Homo sapiens) (UniProt P49721); test: Inhibition of 26S proteasome beta 2 in human HEK293 cell lysate assessed as residual activity at 3 uM after 1 hr; type: cell-free
[51] = molecular target: T1, Proteasome component C5 (Homo sapiens); test: Inhibition of 26S proteasome beta 1 in human HEK293 cell lysate assessed as residual activity at 1 uM after 1 hr; type: cell-free

Activity [1]: 70.5%
Activity [2]: 73.4%
Activity [3]: 104%
Activity [4]: 92.8%
Activity [5]: 85.7%
Activity [6]: 100%
Activity [7]: 110%
Activity [8]: 93.5%
Activity [9]: 78%
Activity [10]: 112%
Activity [11]: 100%
Activity [12]: 3%
Activity [13]: 61.3%
Activity [14]: 92.9%
Activity [15]: 20.5%
Activity [16]: 94.4%
Activity [17]: 96.9%
Activity [18]: 5.1%
Activity [19]: 94.7%
Activity [20]: 167%
Activity [21]: 98.4%
Activity [22]: 118%
Activity [23]: 90.3%
Activity [24]: 113%
Activity [25]: 128%
Activity [26]: 105%
Activity [27]: 101%
Activity [28]: 116%
Activity [29]: 44.3%
Activity [30]: 80%
Activity [31]: 104%
Activity [32]: 104%
Activity [33]: 3.1%
Activity [34]: 11%
Activity [35]: 9.8%
Activity [36]: 116%
Structure (SMILES): CC(C)C[C@H](NC(=O)[C@H](Cc1ccccc1)NC(=O)[C@H](Cc1cc(C(F)(F)F)cc(C(F)(F)F)c1)NC(=O)[C@H](Cc1ccccc1)N=[N+]=[N-])C(=O)[C@@]1(C)CO1

Activity [37]: 117%
Activity [38]: 102%
Activity [39]: 100%
Activity [14]: 106%
Activity [40]: 89.7%
Activity [41]: 25.3%
Activity [42]: 101%
Activity [43]: 120%
Activity [44]: 124%
Activity [23]: 98.4%
Activity [45]: 134%
Activity [46]: 111%
Activity [47]: 8.3%
Activity [48]: 18%
Activity [34]: 45.8%
Activity [49]: 76.5%
Activity [50]: 141%
Activity [51]: 107%
Structure (SMILES): CC1=CC(C)=[N+]2C1=C(CCCCc1cn([C@@H](Cc3ccccc3)C(=O)N[C@@H](Cc3ccccc3)C(=O)N[C@@H](Cc3c(F)c(F)c(F)c(F)c3F)C(=O)N[C@@H](CC(C)C)C(=O)[C@@]3(C)CO3)nn1)c1c(C)cc(C)n1[B-]2(F)F
